Assay results taken from patent US11076597B2, “High stress resistant plant growth regulator and preparation method and use thereof” (SHANGHAI INSTITUTES FOR BIOLOGICAL SCIENCES, CHINESE …, priority 2015, dated 2021).
Read-outs that look alike come from different tables or passages of the source.

Key:
[1] = biological target: T1, PYL7 receptor-HAB1 protein phosphatase complex (Arabidopsis thaliana, UniProt Q1ECF1); assay: AlphaScreen assay: promotion of PYL7 receptor binding to PP2C protein phosphatase HAB1
T1 construct: made in house; host or cells: E. coli BL21 (DE3)
T1 sequence (Q1ECF1 1-211): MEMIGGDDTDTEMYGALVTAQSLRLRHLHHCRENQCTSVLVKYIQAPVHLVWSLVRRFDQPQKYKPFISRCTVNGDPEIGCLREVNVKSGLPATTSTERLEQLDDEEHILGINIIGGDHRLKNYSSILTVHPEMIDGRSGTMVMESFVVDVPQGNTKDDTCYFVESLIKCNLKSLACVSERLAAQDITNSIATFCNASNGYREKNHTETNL
T1 sequence (Q9CAJ0 172-511 partner limits assumed): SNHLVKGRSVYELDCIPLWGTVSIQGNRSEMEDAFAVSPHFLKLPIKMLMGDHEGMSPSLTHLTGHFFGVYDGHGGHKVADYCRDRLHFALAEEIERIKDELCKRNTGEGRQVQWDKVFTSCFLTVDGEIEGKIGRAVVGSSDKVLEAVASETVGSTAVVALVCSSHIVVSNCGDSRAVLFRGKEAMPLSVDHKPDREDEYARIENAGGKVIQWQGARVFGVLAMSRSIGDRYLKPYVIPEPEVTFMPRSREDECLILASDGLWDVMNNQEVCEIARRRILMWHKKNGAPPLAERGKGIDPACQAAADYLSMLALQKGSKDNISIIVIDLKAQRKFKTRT
From the text: (§1) The construction method of recombinant plasmids for the Arabidopsis thaliana genes PYL1 (amino acid sequence 36-211), PYL2 (amino acid sequence 14-188) with dual tags of 6×His and SUMO sequence and the Arabidopsis thaliana gene HAB1 (amino acid sequence 172-511) with the Biotin tag sequence is described in detail in “A gate-latch-lock mechanism for hormone signaling by abscisic acid receptors” (Nature, Vol 462, 2009). The construction method of recombinant plasmids for PYR1 and PYL7 (whole gene coding sequence) and Soybean GmPYL6 and rice OsPYL2 with dual tags of 6×His and SUMO sequence is the same as that for Arabidopsis PYL2.
(§2) The above recombinant plasmid is transformed into competent cell of E. coli BL21 (DE3) (purchased from NEB company), and inoculated into 200 ml of LB liquid medium containing Amp resistance (purchased from OXOID company) and cultured overnight at 37° C. at 200 rpm; and inoculated into 2 L of LB liquid medium containing Amp resistance at a ratio of 1:50-1:100 for an extended culture, and cultured at 37° C., 200 rpm for 3-4 hours, and at a low temperature of 16° C. until OD600 is about 0.8-1.0. Recombinant plasmids for PYR1/PYL1/PYL2/PYL7/GmPYL6/OsPYL2 with dual tags of 6×His and SUMO sequence were induced overnight with 100 μM of IPTG while HAB1 recombinant plasmid with the Biotin tag sequence was induced simultaneously with 100 μM of IPTG and 40 μM of biotin.
(§3) After 16 hours of induction, the bacterial solution was centrifuged at 4000 rpm for 20 minutes at 4° C. in a low-speed high-capacity centrifuge, and the bacteria cells were collected. Bacteria cells were resuspended in 50 ml of extraction buffer (containing 20 mM Tris, pH 8.0, 200 mM NaCl and 10% (v/v) glycerol) for per 2 L of bacterial solution and then subjected to pressure-breaking at […] and 4° C. for 3-5 times. The broken cells were subjected to ultracentrifugation, centrifuged at 16000 rpm for 30 minutes, and this process was repeated twice. The supernatant was collected and subjected to an affinity chromatography column. […]

[2] = biological target: T2, PYL1 receptor-HAB1 protein phosphatase complex (Arabidopsis thaliana, UniProt Q8VZS8); assay: AlphaScreen assay: promotion of PYL1 receptor binding to PP2C protein phosphatase HAB1
T2 construct: made in house; host or cells: E. coli BL21 (DE3)
T2 sequence (Q8VZS8 36-211): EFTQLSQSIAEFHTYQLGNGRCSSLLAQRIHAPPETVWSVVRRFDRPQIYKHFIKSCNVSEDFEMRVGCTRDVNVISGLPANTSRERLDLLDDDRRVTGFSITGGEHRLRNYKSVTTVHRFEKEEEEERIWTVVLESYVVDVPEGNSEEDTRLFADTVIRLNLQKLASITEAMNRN
T2 sequence (Q9CAJ0 172-511 partner limits assumed): T1 sequence (Q9CAJ0 172-511 partner limits assumed)
From the text: as §1, §2, §3

[3] = FIG. 2d, 6×His-SUMO-tagged PYL7 (whole coding sequence), Biotin-tagged HAB1 (aa 172-511), 100 nM each, pH 7.4, 1.5 h room temperature, read-out: EC50
[4] = FIG. 2b, 6×His-SUMO-tagged PYL1 (aa 36-211), Biotin-tagged HAB1 (aa 172-511), 100 nM each, pH 7.4, 1.5 h room temperature, read-out: EC50

**Q.** With `CCCN1C(=O)OC(C)(C)c2cc(NS(=O)(=O)Cc3c(F)c(F)c(C)c(F)c3F)ccc21` [Compound 0304] as the molecule, how does the EC50 [1, 3] read?
**A.** 120 nM

**Q.** And the EC50 [2, 4]?
**A.** 167 nM

**Q.** Which EC50 [1, 3] does the source give for `CCCN1C(=O)OC(C)c2cc(NS(=O)(=O)Cc3c(F)c(F)c(C)c(F)c3F)ccc21` (stereo not drawn) [Compound 0224] here?
**A.** 120 nM

**Q.** What about the EC50 [2, 4] of the same molecule?
**A.** 149 nM

**Q.** With `CC1=CC(=O)CC(C)(C)[C@@]1(O)/C=C/C(C)=C\C(=O)O` [ABA, Abscisic Acid, reference compound] as the molecule, how does the EC50 [1] read?
**A.** 1160 nM

**Q.** What about the EC50 [2] of the same molecule?
**A.** 1200 nM
